Results reported in US20240368139A1, “NOVEL MODULATORS OF EHMT1 AND EHMT2 AND THERAPEUTIC USE THEREOF” (Tango Therapeutics, Inc., priority 2021, published 2024).
Read-outs that look alike come from different tables or passages of the source.

Columns and labels:
hERG potassium channels = hERG potassium channels (Homo sapiens, UniProt Q12809); assay: In vitro hERG assay (SyncroPatch whole-cell recording); settings: room temperature
H3K9me2 in HCT116 cells = assay: HCT116 H3K9me2 in-cell western assay; assay type: cell-based; settings: Homo sapiens, read-out: H3K9me2 ICW IC50
Procedure, shortened: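 HCT116 cells (2,000/well) were treated for 72 h at 37° C, 5% CO2, with ten two-fold dilutions from 10 μM in duplicate. After PFA fixation, cells were stained overnight at 4° C with anti-H3K9me2, then with an 800 CW secondary plus DRAQ5.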

human EHMT2 913-1193 = target: T1, human EHMT2 913-1193 (Homo sapiens, UniProt Q96KQ7); assay: EHMT2 enzyme assay on histone peptide substrate (3H-SAM SPA); settings: EHMT2 IC50, recombinant human EHMT2 913-1193, histone peptide substrate
T1 sequence (Q96KQ7 913-1193): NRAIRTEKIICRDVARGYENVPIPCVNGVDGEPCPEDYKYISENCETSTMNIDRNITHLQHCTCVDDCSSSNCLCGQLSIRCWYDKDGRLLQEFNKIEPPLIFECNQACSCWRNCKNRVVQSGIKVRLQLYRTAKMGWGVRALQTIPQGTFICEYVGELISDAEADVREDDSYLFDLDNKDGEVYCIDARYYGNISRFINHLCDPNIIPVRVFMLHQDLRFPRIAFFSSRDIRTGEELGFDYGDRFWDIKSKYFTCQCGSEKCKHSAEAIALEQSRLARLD

human EHMT1 982-1266 = target: T2, human EHMT1 982-1266 (Homo sapiens, UniProt Q9H9B1); assay: EHMT1 enzyme assay on histone peptide substrate (3H-SAM SPA); settings: EHMT1 IC50, recombinant human EHMT1 982-1266, histone peptide substrate
T2 sequence (Q9H9B1 982-1266): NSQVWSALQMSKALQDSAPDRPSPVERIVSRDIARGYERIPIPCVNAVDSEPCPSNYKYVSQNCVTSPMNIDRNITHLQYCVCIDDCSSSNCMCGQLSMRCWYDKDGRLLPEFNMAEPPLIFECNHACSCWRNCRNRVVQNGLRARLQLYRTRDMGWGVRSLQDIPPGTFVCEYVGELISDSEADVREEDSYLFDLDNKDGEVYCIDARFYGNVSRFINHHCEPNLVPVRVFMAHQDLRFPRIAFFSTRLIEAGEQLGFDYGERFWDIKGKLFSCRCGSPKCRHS

[1] = HCT-116, 72 h, HCT116 cells, 72 hours incubation
[2] = hERG IC50, CHO cells stably expressing hERG

Sequence of hERG potassium channels (Q12809 whole entry): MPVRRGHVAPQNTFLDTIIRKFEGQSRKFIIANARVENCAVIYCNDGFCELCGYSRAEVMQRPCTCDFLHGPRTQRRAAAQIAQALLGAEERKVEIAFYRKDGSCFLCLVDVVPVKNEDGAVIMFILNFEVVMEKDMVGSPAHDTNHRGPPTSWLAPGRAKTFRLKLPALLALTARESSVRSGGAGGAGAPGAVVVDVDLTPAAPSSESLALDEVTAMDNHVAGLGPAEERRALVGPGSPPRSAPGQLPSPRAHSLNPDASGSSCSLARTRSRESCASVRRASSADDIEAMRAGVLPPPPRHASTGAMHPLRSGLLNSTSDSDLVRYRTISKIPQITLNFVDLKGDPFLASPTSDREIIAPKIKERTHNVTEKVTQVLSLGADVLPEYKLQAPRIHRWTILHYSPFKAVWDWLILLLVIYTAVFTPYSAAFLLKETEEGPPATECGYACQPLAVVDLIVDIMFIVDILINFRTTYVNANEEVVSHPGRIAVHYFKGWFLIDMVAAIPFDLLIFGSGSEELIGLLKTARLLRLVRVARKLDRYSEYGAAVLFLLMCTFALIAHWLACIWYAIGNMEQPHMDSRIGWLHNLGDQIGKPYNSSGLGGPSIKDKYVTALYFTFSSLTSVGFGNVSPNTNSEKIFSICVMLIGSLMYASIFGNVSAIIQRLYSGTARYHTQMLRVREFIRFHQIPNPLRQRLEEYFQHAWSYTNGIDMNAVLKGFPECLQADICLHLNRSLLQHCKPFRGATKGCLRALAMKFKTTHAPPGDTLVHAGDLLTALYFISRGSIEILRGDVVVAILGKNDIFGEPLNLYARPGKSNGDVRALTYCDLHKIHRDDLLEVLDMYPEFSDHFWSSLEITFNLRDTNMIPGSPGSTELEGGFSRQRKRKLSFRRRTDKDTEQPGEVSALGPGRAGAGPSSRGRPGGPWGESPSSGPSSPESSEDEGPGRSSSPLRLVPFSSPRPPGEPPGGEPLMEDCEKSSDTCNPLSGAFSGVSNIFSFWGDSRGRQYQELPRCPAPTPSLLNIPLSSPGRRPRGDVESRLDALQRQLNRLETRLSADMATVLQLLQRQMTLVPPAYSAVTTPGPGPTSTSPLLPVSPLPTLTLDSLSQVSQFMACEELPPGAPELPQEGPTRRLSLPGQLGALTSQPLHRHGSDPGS

IC50 (H3K9me2 in HCT116 cells; [1]) [nM] | IC50 (human EHMT2 913-1193) [nM] | IC50 (human EHMT1 982-1266) [nM] | SMILES | IC50 (hERG potassium channels; hERG IC50, SyncroPatch) [nM] | IC50 (hERG potassium channels; [2]) [nM] | IC50 (H3K9me2 in HCT116 cells; HCT-116, 72 h) [nM] | IC50 (H3K9me2 in HCT116 cells; HCT-116, HCT116 cells, 72 hours incubation) [nM]
100 to 500 | 100 to 500 | 100 to 500 | CNc1cc(C)nc(Nc2cc3c(c(C4=C[C@H]5CNC[C@H]5C4)c2)OCCO3)n1 (racemic) [Compound 134, N2-[5-(1,2,3,3a,6,6a-hexahydrocyclopenta[c]pyrrol-5-yl)-2,3-dihydro-1,4-benzodioxin-7-yl]-N4,6-dimethyl-pyrimidine-2,4-diamine] | > 10000 |  |  | 
< 100 | < 100 | < 100 | CNc1cc(C)nc(Nc2cc3c(c(C4=CCNCC(F)C4)c2F)OCC3)n1 (single isomer, unassigned) [Compound 167] | 5000 to 10000 |  |  | 
< 100 | < 100 | < 100 | CNc1cc(C)nc(Nc2cc3c(c(C4=CCNCCC4)c2F)OCC3C)n1 (single isomer, unassigned) [Compound 169] | 5000 to 10000 |  |  | 
 |  |  | CNc1cc(C)nc(Nc2cc3c(c(C4=CCNCCC4)c2F)OCC3C)n1 (single isomer, unassigned) [Compound 170] | < 2000 |  |  | 
< 100 | < 100 | < 100 | CNc1cc(C)nc(Nc2cc3c(c(C4=CCNC(C)CC4)c2F)OCC3)n1 (single isomer, unassigned) [Compound 183] | > 10000 |  |  | 
< 100 | < 100 | < 100 | CNc1cc(C)nc(Nc2cc3c(c(C4=CCNC(C)CC4)c2Cl)OCCC3)n1 (single isomer, unassigned) [Compound 357] | 5000 to 10000 |  |  | 
< 100 | < 100 | < 100 | CNc1cc(C)nc(Nc2cc3c(c(C4=CCNC(C)CC4)c2F)OCO3)n1 (single isomer, unassigned) [Compound 369] | 5000 to 10000 |  |  | 
 | < 100 | < 100 | CNc1cc(C)nc(Nc2cc3c(c(C4=CCNCC(O)C4)c2C)OCC3)n1 (single isomer, unassigned) [Compound 370] | > 10000 |  |  | 
< 100 | < 100 | < 100 | CNc1cc(C)nc(Nc2cc3c(c(C4=CCNCC(O)C4)c2F)OCC3)n1 (single isomer, unassigned) [Compound 373] | > 10000 |  |  | 
< 100 | < 100 | < 100 | CNc1cc(C)nc(Nc2cc3c(c(C4=CCNC(C)CC4)c2Cl)OCC3)n1 (single isomer, unassigned) [Compound 374] | > 10000 |  |  | 
 | < 100 |  | CNc1cc(C)nc(Nc2cc3c(c(C4=CCNCC(O)C4)c2Cl)OCC3)n1 (single isomer, unassigned) [Compound 384] | > 10000 |  |  | 
100 to 500 | 500 to 2000 | 100 to 500 | CNc1cc(C)nc(Nc2cc3c(c(OCCCN4CCCC4)c2)OCC3)n1 [Compound 103, N^4,6-dimethyl-N^2-[7-(3-pyrrolidin-1-ylpropoxy)-2,3-dihydrobenzofuran-5-yl]pyrimidine-2,4-diamine] | > 10000 |  |  | 
< 100 | < 100 | < 100 | CNc1cc(C)nc(Nc2cc3c(c(C4=CCNCCC4)c2)OCC3)n1 [Compound 110, N4,6-dimethyl-N2-[7-(2,3,4,7-tetrahydro-1H-azepin-5-yl)-2,3-dihydrobenzofuran-5-yl]pyrimidine-2,4-diamine] | > 10000 | > 10000 |  | 
< 100 | < 100 | < 100 | CNc1cc(C)nc(Nc2cc3c(c(C4=CCN(C)CCC4)c2)OCC3)n1 [Compound 111, N4,6-dimethyl-N2-[7-(1-methyl-2,3,4,7-tetrahydroazepin-5-yl)-2,3-dihydrobenzofuran-5-yl]pyrimidine-2,4-diamine] | > 10000 | > 10000 |  | 
100 to 500 | 500 to 2000 | 100 to 500 | CNc1cc(C)nc(Nc2cc3c(c(OCCCN4CCCC4)c2)OCCC3)n1 [Compound 113, N4,6-dimethyl-N2-[8-(3-pyrrolidin-1-ylpropoxy)chroman-6-yl]pyrimidine-2,4-diamine] | < 2000 |  |  | 
100 to 500 | 500 to 2000 | 100 to 500 | CNc1cc(C)nc(Nc2cc(OCCCN3CCCC3)c3c(c2)OCO3)n1 [Compound 118, N4,6-dimethyl-N2-[7-(3-pyrrolidin-1-ylpropoxy)-1,3-benzodioxol-5-yl]pyrimidine-2,4-diamine] | 5000 to 10000 |  |  | 
100 to 500 | 100 to 500 | 100 to 500 | CNc1cc(C)nc(Nc2cc(OCCCN3CCCC3)c3c(c2)OCCO3)n1 [Compound 122, N4,6-dimethyl-N2-[5-(3-pyrrolidin-1-ylpropoxy)-2,3-dihydro-1,4-benzodioxin-7-yl]pyrimidine-2,4-diamine] | 2000 to 5000 |  |  | 
< 100 |  |  | CNc1cc(C)nc(Nc2cc3c(c(C4=CCNCCC4)c2F)OCC3)n1 [Compound 291, N2-[6-fluoro-7-(2,3,4,7-tetrahydro-1H-azepin-5-yl)-2,3-dihydrobenzofuran-5-yl]-N4,6-dimethyl-pyrimidine-2,4-diamine] | > 10000 | > 10000 |  | 
100 to 500 | 500 to 2000 | 100 to 500 | CNc1cc(C)nc(Nc2cc3c(c(N4CCCNCC4)c2)OCCC3)n1 [Compound 339] |  |  |  | 
100 to 500 | 100 to 500 | < 100 | CNc1cc(C)nc(Nc2cc3c(c(C4C[C@H]5CNC[C@H]5C4)c2)OCCC3)n1 (stereo partly drawn) [Compound 340] |  |  |  | 
500 to 2000 | 500 to 2000 | 100 to 500 | CNc1cc(C)nc(Nc2cc3c(c([C@H]4C[C@H]5CNC[C@H]5C4)c2)OCO3)n1 [Compound 342] |  |  |  | 
100 to 500 | 500 to 2000 | 100 to 500 | CNc1cc(C)nc(Nc2cc3c(c(C4CCCNCC4)c2)OCO3)n1 (stereo not drawn) [Compound 343] |  |  |  | 
100 to 500 | 500 to 2000 | 100 to 500 | CNc1cc(C)nc(Nc2cc3c(c(C4=C[C@H]5CNC[C@H]5C4)c2)OCCC3)n1 [Compound 344] |  |  |  | 
100 to 500 | > 2000 | 100 to 500 | CNc1cc(C)nc(Nc2cc3c(c(C4=CCC(N)CC4)c2)OCCC3)n1 (stereo not drawn) [Compound 346] |  |  |  | 
100 to 500 | 500 to 2000 | 100 to 500 | CNc1cc(C)nc(Nc2cc3c(c(C4=C[C@H]5CNC[C@H]5C4)c2)OCO3)n1 [Compound 347] |  |  |  | 
100 to 500 | 100 to 500 | < 100 | CNc1cc(C)nc(Nc2cc3c(c(N4C[C@H]5CNC[C@H]5C4)c2F)OCC3)n1 [Compound 351, N2-[6-fluoro-7-[rac-(3aS,6aR)-2,3,3a,4,6,6a-hexahydro-1H-pyrrolo[3,4-c]pyrrol-5-yl]-2,3-dihydrobenzofuran-5-yl]-N4,6-dimethyl-pyrimidine-2,4-diamine] |  |  |  | 
< 100 | < 100 | < 100 | CNc1cc(C)nc(Nc2cc3c(c(C4=CCNCCC4)c2C)OCCC3)n1 [Compound 353, N4,6-dimethyl-N2-[7-methyl-8-(2,3,4,7-tetrahydro-1H-azepin-5-yl)chroman-6-yl]pyrimidine-2,4-diamine] |  |  |  | 
< 100 | 100 to 500 | < 100 | CNc1cc(C)nc(Nc2cc3c(c(C4=CCNCCC4)c2C)OCO3)n1 [Compound 363] |  |  |  | 
100 to 500 | 500 to 2000 | 500 to 2000 | CNc1cc(C)nc(Nc2cc3c(c(C4C[C@H]5CNC[C@H]5C4)c2F)OCC3)n1 (stereo partly drawn) [Compound 437, N2-[7-(1,2,3,3a,4,5,6,6a-octahydrocyclopenta[c]pyrrol-5-yl)-6-fluoro-2,3-dihydrobenzofuran-5-yl]-N4,6-dimethyl-pyrimidine-2,4-diamine] |  |  |  | 

SMILES | IC50 (H3K9me2 in HCT116 cells; [1]) [nM] | IC50 (human EHMT2 913-1193) [nM] | IC50 (human EHMT1 982-1266) [nM] | IC50 (hERG potassium channels; hERG IC50, SyncroPatch) [nM] | IC50 (hERG potassium channels; [2]) [nM] | IC50 (H3K9me2 in HCT116 cells; HCT-116, 72 h) [nM] | IC50 (H3K9me2 in HCT116 cells; HCT-116, HCT116 cells, 72 hours incubation) [nM]
CNc1cc(C)nc(Nc2cc3c(c(C4=CCNCC4)c2)OCCC3)n1 [Compound 345] | 100 to 500 | 500 to 2000 | 100 to 500 |  |  |  | 
CNc1cc(C)nc(Nc2ccc(OC)c(C3=CCN(C)CCC3)c2)n1 [Reference Compound A, reference compound] |  |  | < 100 | 5000 to 10000 | 5000 to 10000 | < 100 | 
CNc1cc(C)nc(Nc2ccc(OC)c(C3=CCNCCC3)c2)n1 [Reference Compound B, reference compound] |  | < 100 |  | 5000 to 10000 | 5000 to 10000 |  | < 100
